Measured values from ChEMBL document CHEMBL2074201, “Cepharanthin, a multidrug resistant modifier, is a substrate for P-glycoprotein” (J Pharmacol Exp Ther, 1995).
pIC50: −log10 of the molar value.

Columns and labels:
[1] = target: T1, ATP-dependent translocase ABCB1 (Homo sapiens, UniProt P08183); test: TP_TRANSPORTER: transepithelial transport (basal to apical) in MDR1-expressing LLC-PK1 cells; type: functional, cell-based; details: pig
[2] = target: T1, ATP-dependent translocase ABCB1; test: TP_TRANSPORTER: inhibition of Daunorubicin transepithelial transport (basal to apical) (Daunorubicin: 0.1 uM) in MDR1-expressing LLC-PK1 cells; type: functional, cell-based

T1 sequence (P08183 whole entry): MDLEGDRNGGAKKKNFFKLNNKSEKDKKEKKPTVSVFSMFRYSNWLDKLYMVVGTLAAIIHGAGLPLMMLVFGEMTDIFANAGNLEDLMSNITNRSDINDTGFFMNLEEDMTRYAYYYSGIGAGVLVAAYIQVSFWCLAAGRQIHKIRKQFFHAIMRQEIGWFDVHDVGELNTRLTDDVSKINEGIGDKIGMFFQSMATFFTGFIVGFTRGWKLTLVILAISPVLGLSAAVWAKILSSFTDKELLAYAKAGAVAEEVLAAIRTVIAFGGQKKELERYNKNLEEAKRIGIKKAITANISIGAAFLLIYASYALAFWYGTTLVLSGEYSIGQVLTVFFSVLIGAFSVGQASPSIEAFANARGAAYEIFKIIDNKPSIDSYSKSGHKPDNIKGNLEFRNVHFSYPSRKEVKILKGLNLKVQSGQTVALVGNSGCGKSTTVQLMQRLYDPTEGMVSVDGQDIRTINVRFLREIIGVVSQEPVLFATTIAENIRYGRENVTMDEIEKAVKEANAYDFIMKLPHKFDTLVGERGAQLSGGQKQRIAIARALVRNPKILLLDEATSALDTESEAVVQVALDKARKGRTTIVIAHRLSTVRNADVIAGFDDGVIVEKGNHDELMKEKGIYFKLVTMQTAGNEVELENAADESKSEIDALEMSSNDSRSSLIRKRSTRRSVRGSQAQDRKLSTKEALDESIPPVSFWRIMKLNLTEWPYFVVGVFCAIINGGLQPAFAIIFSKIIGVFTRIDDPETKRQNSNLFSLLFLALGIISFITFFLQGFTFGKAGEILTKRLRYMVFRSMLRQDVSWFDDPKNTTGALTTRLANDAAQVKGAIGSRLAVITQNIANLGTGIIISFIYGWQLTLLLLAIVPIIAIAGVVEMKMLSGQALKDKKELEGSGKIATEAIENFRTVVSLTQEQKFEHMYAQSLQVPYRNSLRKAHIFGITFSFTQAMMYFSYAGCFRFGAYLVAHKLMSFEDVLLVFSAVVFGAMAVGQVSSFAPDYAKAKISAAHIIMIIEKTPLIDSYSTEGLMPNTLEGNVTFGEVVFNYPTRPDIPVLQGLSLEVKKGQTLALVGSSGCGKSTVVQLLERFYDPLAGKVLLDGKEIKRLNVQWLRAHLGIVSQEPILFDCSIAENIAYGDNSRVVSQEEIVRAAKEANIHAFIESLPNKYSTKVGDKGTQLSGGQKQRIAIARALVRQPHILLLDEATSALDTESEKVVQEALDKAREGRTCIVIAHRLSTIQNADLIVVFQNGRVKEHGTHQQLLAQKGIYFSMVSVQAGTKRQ

Activity [1]: substrate [+]
pIC50 [2]: 5.69
Compound: COc1ccc2cc1Oc1cccc(c1)C[C@H]1c3c(cc4c(c3Oc3cc5c(cc3OC)CCN(C)[C@@H]5C2)OCO4)CCN1C [CEPHARANTHIN]
